Where two headings read alike, the source gives them in different places.
Assays:
[1] = test system: rabbit corneal endothelium; conditions: perfused in vitro for three hours, concentrations up to 5,000 IU/ml; cited from earlier work
corneal haze after PRK = conditions: rabbits, excimer laser PRK; cited from earlier work
[2] = target: T1, urokinase-type plasminogen activator (uPA) in rabbit tears (Oryctolagus cuniculus, UniProt Q8MHY7); test: Plasminogen activator activity in rabbit tears after PRK, spectrophotometric method with human plasminogen and S-2251; assay type: in vivo, New Zealand rabbits
T1 construct: from tissue; host or cells: rabbit tear fluid collected with glass capillaries
Method: Both eyes in each of 8 rabbits underwent PRK treatment. One eye of each rabbit was treated with a serine protease inhibitor (SPI) over the first 7 days to inactivate uPA in the tears and on the surface of the cornea. uPA in the tear samples was measured by a spectrophotometric method using human plasminogen and chromogenic peptide substrate S-2251.
Materials and Methods Sixteen eyes of eight normal healthy New Zealand rabbits (3.0–3.5 kg) underwent PRK surgery for spherical correction using the Schwind Keratom II ArF excimer laser (193 nm), performed by the same surgeon at Vital-Laser LLC, Department of Ophthalmology, University Medical School of Debrecen. Animals were handled and treated in adherence to the ARVO Statement for the Use of Animals in Ophthalmic and Vision Research. De-epithelialization was performed with a blunt Keratome Blade knife after epithelial marking with a 6.0–6.5 mm Hoffer trephine. The epithelium was scraped gently from periphery to center. Residual epithelial debris was removed with a sterile microsponge.
Topical anesthetic (0.4% oxybuprocaine hydrochloride) eye drops were administered twice before the surgery. General anesthesia was accomplished by intravenous injection of ketamine-xylazine (2.2:1 ratio, 10 mg/kg). The PRK surgeries were performed on the morning of day 1. The postoperative treatment included antibiotic eye drops, Ciloxan (Alcon), twelve times (hourly) on day 1 and five times (every two hours) on five additional days (postoperative days 2–5 and 7). FLUCON™ (Alcon) and TEARS NATURALE™ (Alcon) were given 5 times daily (every two hours) during the first postoperative month, reduced to 4 times daily (every three hours) for the second month and 3 times daily (every four hours) for the third month. All rabbits received follow-up examinations at 1, 3 and 6 months following the PRK procedure.
In addition, the left eye of each rabbit received 1 drop of 10,000 KIE/ml serine protease inhibitor (SPI), aprotinin (Gordox, Richter Gideon Rt., Budapest), twelve times (hourly) on day 1 and five times (every two hours) on five additional days (postoperative days 2–5 and 7). This was designated the “With-SPI” group. The right eyes were not treated with SPI and were designated the “No-SPI” group. After the seventh day, identical treatment was used on both eyes. No other treatment was used during the six month follow-up period. […] Lottenberg R, Sjak-Shie N, Fazleabas A T, Roberts R M. Aprotinin inhibits urokinase but not tissue-type plasminogen activator. Thromb Res 1988;49:549–556; and Fritz H, Wunderer G. Biochemistry and applications of aprotinin, the kallikrein inhibitor from bovine organs. Arzneim Forsch 1983;33:479–494.
Tear samples for plasminogen activator activity analyses were obtained on the day before the PRK surgery (day 0). Tear samples were collected within minutes after PRK (day 1), before treatment with any eye drops. Daily on postoperative days 2–5, on postoperative day 7 and every fourth day thereafter for three months (91 days), tears were sampled in the morning prior to the administration of any eye drops on the given day so that SPI treatment would not change the uPA levels.
Samples consisted of tears collected with glass capillaries using i.m. injection of pilocarpine hydrochloride (5 mg/kg) for stimulation. Tears were taken from the lower tear meniscus and care was taken not to touch the conjunctiva. The same collection method was used throughout the study. The duration of the sampling time was recorded and the secretion rate was calculated in μl/min, dividing the obtained tear volume by the time of sample collection. Samples used in this investigation had secretion rates of 15–50 μl/min. Samples were centrifuged (1800 rpm) for 8–10 minutes right after sample collection and supernatants were immediately deep-frozen at −80° C. and were thawed only once for measurements. […]

[3] = target: urokinase-type plasminogen activator (Homo sapiens, UniProt P00749); conditions: cited from earlier work

T1 sequence (Q8MHY7 17-433): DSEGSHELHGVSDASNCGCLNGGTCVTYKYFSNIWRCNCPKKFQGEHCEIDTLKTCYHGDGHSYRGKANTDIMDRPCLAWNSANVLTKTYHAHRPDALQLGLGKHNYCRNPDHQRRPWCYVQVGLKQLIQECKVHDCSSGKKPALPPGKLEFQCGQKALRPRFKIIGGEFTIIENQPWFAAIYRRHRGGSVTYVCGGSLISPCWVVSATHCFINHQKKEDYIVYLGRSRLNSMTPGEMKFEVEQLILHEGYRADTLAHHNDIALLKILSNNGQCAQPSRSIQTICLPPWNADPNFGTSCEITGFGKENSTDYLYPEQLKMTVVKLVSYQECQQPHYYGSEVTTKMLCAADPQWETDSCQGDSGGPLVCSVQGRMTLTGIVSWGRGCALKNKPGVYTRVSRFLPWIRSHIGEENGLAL

Compound: urokinase
- Endothelial mosaic under scanning electron microscopic scrutiny [1]: retains a normal endothelial mosaic
- Swelling of rabbit corneas [1]: does not induce meaningful swelling
- Toxicity to rabbit corneal endothelium [1]: non-toxic

Compound: CO[C@@]12[C@H](COC(N)=O)C3=C(C(=O)C(C)=C(N)C3=O)N1C[C@@H]1N[C@@H]12 [mitomycin C]
- Effect on corneal haze after PRK (corneal haze after PRK): reduce haze after PRK

Compound: aprotinin [SPI]
- Day by which mean uPA levels returned to preoperative levels ([2]; SPI-treated rabbit eyes, SPI over first 7 days): 15 days
- uPA activity, mean value averaged over days 1–7 ([2]; SPI-treated rabbit eyes, period of SPI suppression): 0.13 (0.15) IU/ml
- Mean uPA activity on days 1–7 lower than the equilibrium plasminogen activator activity level ([2]; SPI-treated rabbit eyes, versus days 19–91 level, p<0.001): 95%
- PAA: With-SPI, mean (SD), equilibrium level ([2]; averaged over days 19–91, rabbit tears): 2.88 (0.22) IU/ml
- PAA: With-SPI, mean (SD) ([2]; day 0 (day before PRK, before SPI), rabbit tears, 8 eyes): 2.77 (0.26) IU/ml
- PAA: With-SPI, mean (SD) ([2]; day 1 (within minutes after PRK, before eye drops), rabbit tears): 0.42 (0.47) IU/ml
- PAA: With-SPI, mean (SD) ([2]; day 2, rabbit tears, sampled in the morning before SPI drops, 10,000 KIE/ml SPI): 0.18 (0.21) IU/ml
- PAA: With-SPI, mean (SD) ([2]; day 3, rabbit tears, sampled before SPI drops): 0.04 (0.03) IU/ml
- PAA: With-SPI, mean (SD) ([2]; day 4, rabbit tears, sampled before SPI drops): 0.03 (0.04) IU/ml
- PAA: With-SPI, mean (SD) ([2]; day 5, rabbit tears, sampled before SPI drops): 0.05 (0.05) IU/ml
- PAA: With-SPI, mean (SD) ([2]; day 7, rabbit tears, sampled before SPI drops): 0.05 (0.04) IU/ml
- PAA: With-SPI, mean (SD) ([2]; day 11 (after end of SPI treatment), rabbit tears): 2.63 (0.18) IU/ml
- PAA: With-SPI, mean (SD) ([2]; day 15, rabbit tears): 2.76 (0.18) IU/ml
- Inhibition of plasminogen activator (urokinase) activity [3]: effective inhibitor of plasminogen activator activity
- Inhibition of plasminogen activator (urokinase) activity ([3]; listed as Aprotinin): especially effective for inhibiting urokinase

From patent publication US7179461B2, “Plasminogen activator to prevent corneal and subepithelial haze after laser vision correction surgery” (The Johns Hopkins University, priority 2000, dated 2007)
